The record followed here is patent US20250248970A1, “NOVEL SUBSTITUTED FLUORINATED N-PROPYL-PYRROLIDINE COMPOUNDS, PROCESSES FOR THEIR PREPARATION AND THERAPEUTIC USES THEREOF” (SANOFI, priority 2022, published 2025).

The test has as its target T1, ERα (Homo sapiens, UniProt P03372).
T1 construct: host or cells: MCF7
T1 sequence (P03372 1-595): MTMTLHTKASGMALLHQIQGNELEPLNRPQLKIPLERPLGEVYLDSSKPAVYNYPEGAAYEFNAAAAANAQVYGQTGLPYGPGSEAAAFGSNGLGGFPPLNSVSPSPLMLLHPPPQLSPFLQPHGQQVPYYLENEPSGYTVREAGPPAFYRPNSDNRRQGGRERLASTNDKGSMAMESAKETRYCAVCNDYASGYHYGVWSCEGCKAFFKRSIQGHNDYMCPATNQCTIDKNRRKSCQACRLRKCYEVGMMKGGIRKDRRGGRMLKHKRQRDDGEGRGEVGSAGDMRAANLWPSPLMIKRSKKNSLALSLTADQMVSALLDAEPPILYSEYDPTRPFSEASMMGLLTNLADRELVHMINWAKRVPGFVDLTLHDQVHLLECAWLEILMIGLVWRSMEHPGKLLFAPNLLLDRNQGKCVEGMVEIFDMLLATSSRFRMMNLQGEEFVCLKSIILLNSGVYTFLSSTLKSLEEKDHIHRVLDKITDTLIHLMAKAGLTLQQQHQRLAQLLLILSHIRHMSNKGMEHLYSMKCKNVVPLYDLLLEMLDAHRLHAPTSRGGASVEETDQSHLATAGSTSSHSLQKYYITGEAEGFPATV
The test is described as follows: Estrogen receptor degradation activity (breast cancer cell ERα in cell western assay). Format: cell-based. The conditions noted are these: MCF7 cells, 0.3 μM, 4 hours, % of ERα levels decrease relative to fulvestrant. On the procedure:
Said test involves measuring the in vitro degradation activity of the compounds of the Table 1a.
The measurements of the degradation activities were made using a breast cancer cell ERα in cell western assay as described hereunder.
MCF7 cells (ATCC) were seeded in 384 wells microplate (collagen coated) at a concentration of 10000 cells/30 μL per well in red phenol free MEM alpha medium (invitrogen) containing 5% charcoal dextran striped FBS. The following day, 9 points serial 1:5 dilution of each compound was added to the cells in 2.5p L at final concentrations ranging from 0.3-0.0000018 μM (in table 2), or 0.1 μM for fulvestrant (using as positive control). At 4 hours post compound addition the cells were fixed by adding 25 μL of formalin (final concentration 5% formalin containing 0.1% triton) for 10 minutes at room temperature and then washed twice with PBS. Then, 50 μL of LI-COR blocking buffer containing 0.1% Triton was added to plate for 30 minutes at room temperature. LI-COR blocking buffer was removed and cells were incubated overnight at cold room with 50 μL anti-ER rabbit monoclonal antibody (Thermo scientific MA1-39540) diluted at 1:1000 in LI-COR blocking buffer containing 0.1% tween-20. Wells which were treated with blocking buffer but no antibody were used as background control. Wells were washed twice with PBS (0.1% tween-20) and incubated at 37° C. for 60 minutes in LI-COR (0.1% tween-20) containing goat anti-rabbit antibody Alexa 488 (1:1000) and Syto-64 a DNA dye (2 μM final concentration). Cells were then washed 3 times in PBS and scanned in ACUMEN explorer (TTP-Labtech). Integrated intensities in the green fluorescence and red fluorescence were measured to determine the levels of ERα and DNA respectively.
The degradation activity with respect to estrogen receptors in this test is given by the concentration which degrades 50% of the estrogen receptor (or IC50) in nM.
The % of ERα levels decrease were determined as follows: % inhibition=100*(1−(sample−fulvestrant: DMSO−fulvestrant)).
Turning to `Cc1cc(F)cc(C)c1C1=C(c2ccc(CC3CCN(CCC(F)F)C3)cc2)c2ccc(C(=O)O)cc2CCC1.Cl` (single isomer, unassigned; isomer 1) [Compound 32, 9-(4-((1-(3,3-difluoropropyl)pyrrolidin-3-yl)methyl)phenyl)-8-(4-fluoro-2,6-dimethylphenyl)-6,7-dihydro-5H-benzo[7]annulene-3-carboxylic acid hydrochloride, Isomer 1], the “% Degradation At 0.3 μM” value turned out to be 76%. The same measure for `Cl.O=C(O)c1ccc2c(c1)CCCC(c1ccc(C(F)(F)F)cc1)=C2c1ccc(CC2CCN(CCCF)C2)cc1` (single isomer, unassigned; isomer 1) [Compound 38, 9-(4-((1-(3-fluoropropyl)pyrrolidin-3-yl)methyl)phenyl)-8-(4-(trifluoromethyl)phenyl)-6,7-dihydro-5H-benzo[7]annulene-3-carboxylic acid hydrochloride, Isomer 1]: 92%. Then `Cl.O=C(O)c1ccc2c(c1)OCCC(c1ccc(Cl)cc1Cl)=C2c1ccc(CC2CCN(CCCF)C2)cc1` (single isomer, unassigned; isomer 2) [Compound 8, 4-(2,4-dichlorophenyl)-5-(4-((1-(3-fluoropropyl)pyrrolidin-3-yl)methyl)phenyl)-2,3-dihydrobenzo[b]oxepine-8-carboxylic acid hydrochloride, Isomer 2], with 63%; and `CC1CCc2cc(C(=O)O)ccc2C(c2ccc(CC3CCN(CCCF)C3)cc2)=C1c1ccc(C(F)(F)F)cc1` (single isomer, unassigned; isomer 1) [Compound 41, 9-(4-((1-(3-fluoropropyl)pyrrolidin-3-yl)methyl)phenyl)-7-methyl-8-(4-(trifluoromethyl)phenyl)-6,7-dihydro-5H-benzo[7]annulene-3-carboxylic acid, Isomer 1], with 100%; and `Cc1cccc(C2=C(c3ccc(CC4CCN(CCC(F)F)C4)cc3)c3ccc(C(=O)O)cc3CCC2)c1C(F)(F)F.Cl` (single isomer, unassigned; isomer 1) [Compound 34, 9-(4-((1-(3,3-difluoropropyl)pyrrolidin-3-yl)methyl)phenyl)-8-(3-methyl-2-(trifluoromethyl)phenyl)-6,7-dihydro-5H-benzo[7]annulene-3-carboxylic acid hydrochloride, Isomer 1], with 85%. Then `Cl.O=C(O)c1ccc2c(c1)SCC(c1ccc(Cl)cc1Cl)=C2c1ccc(CC2CCN(CCCF)C2)cc1` (single isomer, unassigned; isomer 1) [Compound 25, 3-(2,4-dichlorophenyl)-4-(4-((1-(3-fluoropropyl)pyrrolidin-3-yl)methyl)phenyl)-2H-thiochromene-7-carboxylic acid hydrochloride, Isomer 1], with 68%.

`Cl.O=C(O)c1ccc2c(c1)CCCC(c1ccc(Cl)cc1)=C2c1ccc(CC2CCN(CCCF)C2)cc1` (single isomer, unassigned; isomer 1) [Compound 37, 8-(4-chlorophenyl)-9-(4-((1-(3-fluoropropyl)pyrrolidin-3-yl)methyl)phenyl)-6,7-dihydro-5H-benzo[7]annulene-3-carboxylic acid hydrochloride, Isomer 1]: the “% Degradation At 0.3 μM” value came out at 93%. Then `O=C(O)C(F)(F)F.O=C(O)c1ccc2c(c1)CCCC(c1ccc(Cl)cc1Cl)=C2c1ccc(CC2(F)CCN(CCCF)C2)cc1` (single isomer, unassigned; isomer 2) [Compound 22, 8-(2,4-dichlorophenyl)-9-(4-((3-fluoro-1-(3-fluoropropyl)pyrrolidin-3-yl)methyl)phenyl)-6,7-dihydro-5H-benzo[7]annulene-3-carboxylic acid, 2,2,2-trifluoroacetic acid, Isomer 2], with 48%; and `Cl.Oc1ccc2c(c1)CCCC(c1ccc(Cl)cc1Cl)=C2c1ccc(CC2CCN(CCCF)C2)cc1` (single isomer, unassigned; isomer 1) [Compound 29, 8-(2,4-dichlorophenyl)-9-(4-((1-(3-fluoropropyl)pyrrolidin-3-yl)methyl)phenyl)-6,7-dihydro-5H-benzo[7]annulene-3-ol hydrochloride, Isomer 1], with 76%. Then `COc1ccc(C2=C(c3ccc(CC4CCN(CCCF)C4)cc3)c3ccc(C(=O)O)cc3CCC2)cn1` (single isomer, unassigned; isomer 1) [Compound 14, 9-(4-((1-(3-fluoropropyl)pyrrolidin-3-yl)methyl)phenyl)-8-(6-methoxypyridin-3-yl)-6,7-dihydro-5H-benzo[7]annulene-3-carboxylic acid, Isomer 1], with 88%.

On to `Cl.O=C(O)c1ccc2c(c1)CCCC(c1cccc(Cl)c1)=C2c1ccc(CC2CCN(CCCF)C2)cc1` (single isomer, unassigned; isomer 1) [Compound 40, 8-(3-chlorophenyl)-9-(4-((1-(3-fluoropropyl)pyrrolidin-3-yl)methyl)phenyl)-6,7-dihydro-5H-benzo[7]annulene-3-carboxylic acid hydrochloride, Isomer 1], for which the “% Degradation At 0.3 μM” value is 73%.

In the case of `O=C(O)C(F)(F)F.O=C(O)c1ccc2c(c1)CCCC(c1ccc(Cl)cc1Cl)=C2c1ccc(CC2(F)CCN(CCCF)C2)cc1` (single isomer, unassigned; isomer 1) [Compound 23, 8-(2,4-dichlorophenyl)-9-(4-((3-fluoro-1-(3-fluoropropyl)pyrrolidin-3-yl)methyl)phenyl)-6,7-dihydro-5H-benzo[7]annulene-3-carboxylic acid, 2,2,2-trifluoroacetic acid, Isomer 1], the “% Degradation At 0.3 μM” value stood at 69%. The same measure for `O=C(O)c1ccc2c(c1)CCCC(c1ccccc1C(F)(F)F)=C2c1ccc(CC2CCN(CCC(F)F)C2)cc1` (centres unmarked) [Compound 33, 9-(4-((1-(3,3-difluoropropyl)pyrrolidin-3-yl)methyl)phenyl)-8-(2-(trifluoromethyl)phenyl)-6,7-dihydro-5H-benzo[7]annulene-3-carboxylic acid]: 76%; for `Cc1c(C2=C(c3ccc(CC4CCN(CCC(F)F)C4)cc3)c3ccc(C(=O)O)cc3CCC2)cccc1C(F)(F)F.Cl` (single isomer, unassigned; isomer 1) [Compound 28, 9-(4-((1-(3,3-difluoropropyl)pyrrolidin-3-yl)methyl)phenyl)-8-(2-methyl-3-(trifluoromethyl)phenyl)-6,7-dihydro-5H-benzo[7]annulene-3-carboxylic acid hydrochloride, Isomer 1]: 78%.
